Experimental data taken from PubChem BioAssay (NCI).
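Each compound was tested at five concentrations against cells in 96-well plates for 48 hours. TGI: concentration producing complete growth inhibition.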

Assays:
Assay in all cases: NCI tumour cell line growth inhibition, 48 h
NCI-H23 lung = system: NCI-H23 lung
NCI/ADR-RES ovarian = system: NCI/ADR-RES ovarian
HCC-2998 colon = system: HCC-2998 colon
IGROV1 ovarian = system: IGROV1 ovarian
SNB-75 CNS = system: SNB-75 CNS
COLO 205 colon = system: COLO 205 colon
BT-549 breast = system: BT-549 breast
HOP-62 NSCLC = system: HOP-62 NSCLC
CCRF-CEM leukemia = system: CCRF-CEM leukemia
HCT-116 colon = system: HCT-116 colon
T-47D breast = system: T-47D breast
LOX IMVI melanoma = system: LOX IMVI melanoma
MCF7 breast = system: MCF7 breast
RXF 393 renal = system: RXF 393 renal
OVCAR-8 ovarian = system: OVCAR-8 ovarian
OVCAR-4 ovarian = system: OVCAR-4 ovarian
KM12 colon = system: KM12 colon
SW-620 colon = system: SW-620 colon
MDA-N = system: MDA-N
EKVX NSCLC = system: EKVX NSCLC
A498 renal = system: A498 renal
HCT-15 colon = system: HCT-15 colon
ACHN renal = system: ACHN renal
TK-10 renal = system: TK-10 renal
K-562 leukemia = system: K-562 leukemia
HT29 colon = system: HT29 colon
UO-31 renal = system: UO-31 renal
SF-295 CNS = system: SF-295 CNS
UACC-257 melanoma = system: UACC-257 melanoma
NCI-H460 lung = system: NCI-H460 lung
SR leukemia = system: SR leukemia
M14 melanoma = system: M14 melanoma
U251 CNS = system: U251 CNS
SF-268 CNS = system: SF-268 CNS
HL-60(TB) leukemia = system: HL-60(TB) leukemia
SN12C renal = system: SN12C renal
MDA-MB-231 breast = system: MDA-MB-231 breast
SK-MEL-2 melanoma = system: SK-MEL-2 melanoma
UACC-62 melanoma = system: UACC-62 melanoma
MOLT-4 leukemia = system: MOLT-4 leukemia
SK-MEL-28 melanoma = system: SK-MEL-28 melanoma
SNB-19 CNS = system: SNB-19 CNS
HOP-92 NSCLC = system: HOP-92 NSCLC
786-0 renal = system: 786-0 renal
MDA-MB-435 = system: MDA-MB-435
SK-MEL-5 melanoma = system: SK-MEL-5 melanoma
A549 NSCLC = system: A549 NSCLC
CAKI-1 renal = system: CAKI-1 renal
DU-145 prostate = system: DU-145 prostate
HS 578T breast = system: HS 578T breast
SK-OV-3 ovarian = system: SK-OV-3 ovarian
NCI-H226 lung = system: NCI-H226 lung
RPMI-8226 leukemia = system: RPMI-8226 leukemia
PC-3 prostate = system: PC-3 prostate
MALME-3M melanoma = system: MALME-3M melanoma
OVCAR-5 ovarian = system: OVCAR-5 ovarian
OVCAR-3 ovarian = system: OVCAR-3 ovarian
SF-539 CNS = system: SF-539 CNS
NCI-H522 lung = system: NCI-H522 lung

Measured: TGI

CCOC(=O)[C@@H](NC(=O)OC(C)(C)C)[C@@H](O)C(=O)OCC
not listed: SF-539 CNS | NCI-H522 lung
> 100 µM: all other assays above

CC(=O)C1C(=O)C(C(C)=O)C2C3C=CC(C3)C12 (centres undefined)
not listed: EKVX NSCLC | M14 melanoma
> 100 µM: all other assays above
